How the values were obtained:
[1] = system: liver IR injury mouse model; assay: Liver ischemia-reperfusion (IR) injury mouse model: plasma markers and histology; type: in vivo; conditions: 6 h reperfusion, vs IR; for hepatic necrotic area in ischemic lobe (H&E) / plasma ALT: 1 mg/kg SC 30 min before 60 min ischemia; for neutrophil infiltration into ischemic liver (immunohistochemistry): 1 mg/kg SC
Protocol: Liver ischemia-reperfusion (IR) surgery was performed by the Animal Surgery Core Laboratory of the McAllister Heart Institute, University of North Carolina Chapel Hill, NC. The mouse experiments were approved by the UNC Animal Care and Use Committees and complied with National Institutes of Health guidelines. Male C57BL/6J mice, approximately 8 weeks old, were used in the IR surgeries. Mice received a subcutaneous (SC) injection of 1 mg/kg oligosaccharide or the equivalent volume of saline 30 minutes prior to the surgical procedure. For the combination treatment of 12-mer-3+6-mer-AXa, equal concentration of each oligosaccharide was combined into a single solution. Under ketamine/xylazine anesthesia, an abdominal midline incision was made to expose the portal vein. A clamp was placed on the portal vein and bile duct to three major liver lobes to cause a 70% hepatic ischemia. Visible blanching of the ischemic liver lobes confirmed correct placement of the clamp. A temporary stitch closure of the muscle and skin over the clamp was used to prevent dehydration during the ischemia phase. Mice stayed on a heating pad and under anesthesia during the ischemia phase (60 minutes). The clamp was removed after 60 minutes and the ischemia liver lobes regained their red color as blood began to reperfusion the tissue, an indicator of correct reperfusion occurring. The incisions were closed in two layers with 5-0 silk sutures and the mice returned to their active state (no anesthesia used during the reperfusion phase). After 6 hours, the mice were re-anaesthetized, blood was drawn via cardiac puncture and ischemia liver lobes were harvested for histology (fixed in 10% formalin).
Plasma ALT was measured using the ALT Infinity reagent (Thermo Fisher) following the manufacturer's instructions. Plasma TNF-α was measured using Mouse TNF-α DuoSet Kit (R&D Systems) according to the manufacturer's instructions. Plasma HMGB1 levels were determined using HMGB1 ELISA Kit (Tecan US) according to the manufacturer's instructions. Plasma syndecan-1 levels were determined using Mouse Syndecan-1 ELISA (CellSciences) according to manufacturer's instructions. Plasms IL-6 levels were determined using Mouse IL-6 ELISA (R&D Systems).
Ischemia liver tissues were fixed in 10% neutral buffered formalin for 24 hours at room temperature, paraffin-embedded, and sectioned. Liver sections (4 μm) were stained with hematoxylin-eosin (H&E) or immunostained with monoclonal antibodies anti-neutrophil (Abcam, Ab 2557, NIMP-R14) followed by goat anti-rat or goat anti-rabbit biotinylated secondary antibodies (Abcam). Embedding, sectioning and H&E staining were performed at the Animal Histopathology and Laboratory Medicine Core Facility at UNC Chapel Hill. H&E analyses were performed by the Translational Pathology Laboratory Core Facility at UNC Chapel Hill using Aperio ImageScope Software (Leica Biosystems, Concord, Canada). IHC images were captured using an HD camera attached to a bright field microscope (Leica DM 1000 LED, Leica Microsystems Inc., IL, USA) and were processed using ImageJ. For neutrophil quantitation, five 100× images were randomly selected for each sample and the average neutrophils/field were reported.
1 mg/kg of 18-mer or equal volume of sterile saline was administered by subcutaneous injection 30 minutes prior to start of the ischemia phase. Ischemia to 70% of the liver was caused by clamping the portal vein and bile duct for 60 minutes. After the clamp was removed, the reperfusion phase last 6 hours before the animals were sacrificed for collection of liver tissue and blood. For surgical controls, a sham operation was performed such that the animal experienced the same anesthesia, abdominal midline incision, and suturing as the IR mice (FIG. 11A).

MPO = MPO activity in ischemic liver lysate after liver IR; type: in vivo, mouse; conditions: 1 mg/kg SC, 6 h reperfusion
Protocol: Liver ischemia-reperfusion (IR) surgery was performed by the Animal Surgery Core Laboratory of the McAllister Heart Institute, University of North Carolina Chapel Hill, NC. The mouse experiments were approved by the UNC Animal Care and Use Committees and complied with National Institutes of Health guidelines. Male C57BL/6J mice, approximately 8 weeks old, were used in the IR surgeries. Mice received a subcutaneous (SC) injection of 1 mg/kg oligosaccharide or the equivalent volume of saline 30 minutes prior to the surgical procedure. For the combination treatment of 12-mer-3+6-mer-AXa, equal concentration of each oligosaccharide was combined into a single solution. Under ketamine/xylazine anesthesia, an abdominal midline incision was made to expose the portal vein. […]
Ischemia liver lobe was mechanically homogenized in 50 mM CTAB 50 mM potassium phosphate pH 6 at a ratio of 100 μl buffer per 10 mg tissue. […] Total protein concentration was measured by Bradford assay. 10 μl of liver lysate was incubated with 80 μl of 0.75 mM H2O2 and 110 μl of TMB (TMB liquid reagent, ready-to-use, Sigma) for 10 minutes at 37° C. with gentle agitation. The reaction was stopped by addition of 2.5 M H2SO4 and read at 450 nm. Activity (U/g protein) was calculated as absorbance of sample minus the absorbance of the blank divided by incubation time. […]

[2] = kidney IR model; cited from earlier work
FXa (Homo sapiens) = system: T1, FXa (Homo sapiens); assay: Ex vivo plasma FXa activity of mice after liver IR; type: in vivo, mouse; conditions: 1 mg/kg SC 30 min before ischemia; plasma after 6 h reperfusion; vs IR
T1 construct: purchased Enzyme Research Laboratories (FXa); Cutter Biologics (antithrombin)
Protocol: (§1) Assays were based on a previously published method. Briefly, human FXa (Enzyme Research Laboratories) was diluted to 50 U ml^−1 with PBS. The chromogenic substrate S-2765 (Diapharma) was diluted to 1 mg ml^−1 in water. For in vitro studies, fondaparinux (available under the trade name ARIXTRA) and 12-mer oligosaccharides were dissolved in PBS at various concentrations (0-131 nM). 16 μl of sample was incubated with 60 μl of […] antithrombin (Cutter Biologics) for 2 min at room temperature. Next, 100 μl of FXa was added and incubated for 4 min at room temperature. 30 μl of S-2765 substrate was added and the absorbance of the reaction mixture was measured at 405 nm continuously for 5 min. PBS serves as a control sample. The maximum slope for each sample was convert to percent FXa activity by dividing by the maximum slope for the control sample.
For ex vivo studies, mouse plasma collected after the 6 hour reperfusion period and assayed the same as described above.
Liver ischemia-reperfusion (IR) surgery was performed by the Animal Surgery Core Laboratory of the McAllister Heart Institute, University of North Carolina Chapel Hill, NC. The mouse experiments were approved by the UNC Animal Care and Use Committees and complied with National Institutes of Health guidelines. Male C57BL/6J mice, approximately 8 weeks old, were used in the IR surgeries. […]

rat model = conditions: elevated doses; cited from earlier work
HMGB1 = target: T2, HMGB1 (Mus musculus, UniProt P63158); assay: Affinity purification (pulldown) of HMGB1 from liver lysate with biotinylated oligosaccharides, Western analysis; type: binding; conditions: biotinylated oligosaccharide 0.1 mM, Western blot
T2 construct: used to pull down endogenous HMGB1 from liver lysate; from tissue; host or cells: liver lysate
T2 sequence (P63158 1-215): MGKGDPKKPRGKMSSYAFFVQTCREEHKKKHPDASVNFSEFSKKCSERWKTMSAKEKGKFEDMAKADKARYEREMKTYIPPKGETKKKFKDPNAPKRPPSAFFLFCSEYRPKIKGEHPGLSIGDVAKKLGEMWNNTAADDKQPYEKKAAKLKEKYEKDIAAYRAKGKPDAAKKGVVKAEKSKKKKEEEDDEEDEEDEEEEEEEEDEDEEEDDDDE
Protocol: The oligosaccharides were converted to biotinylated versions using the same method as described in PCT International Patent Application Serial No. PCT/US2018/059152. Briefly, 12-mers and 6-mer-AXa with a pNP tag (5-10 mg) and 0.5 mg Pd/C were dissolved in 20 mM NaOAc, pH 5.0 in a total volume of 4 ml. Reaction mixture was vacuumed and refilled with H2 three times. The reaction was then incubated at room temperature for 4 h. After that, it was filtered to remove charcoal. The filtered solution was adjusted to pH 8.5 using 500 mM Na2HPO4. Succinimidyl 6-azidohexanoate (20 molar equivalent of starting oligosaccharides) was added and incubated at 37° C. overnight. Reaction was purified by DEAE-HPLC column to generate azido tagged oligosaccharides. PBS (pH7.4) buffer was bubbled with N2 for 5 min to prepare the sample solution of 0.1 M CuSO4, 0.1 M Tris(3-hydroxypropyl-triazolylmethyl)amine (THPTA)(Sigma), 0.15 M sodium ascorbate, 0.01 M azido tagged oligosaccharides and 0.02 M biotin-PEG4-alkyne (Sigma). The mixture of […] and 80 μl CuSO4 was vortexed, then 160 μl sodium ascorbate, 200 μl azido tagged oligomers and 200 μl biotin-PEG4-alkyne was added and bubbled with N2 for 2 min, then incubated at 37° C. overnight. The reaction was purified by DEAE-HPLC column to generate biotinylated products. The biotinylated 12-mers and 6-mer-AXa products were confirmed by ESI-MS.
Briefly, liver lysate was prepared by snap freezing tissue in liquid nitrogen at the time of sacrifice. The tissue was mechanically homogenized in buffer containing 200 mM MES, 500 mM phosphate, and 1 mM EDTA at pH 6 followed by three rounds of freeze thawing. The lysed sample were centrifuged at 10,000× g for 15 min at 4° C. Biotinylated HS oligosaccharides (final concentration 0.1 mM) were mixed with 20 μl of fresh liver lysate (˜0.6 mg) in 100 mM NaCl 20 mM HEPES pH 7.2 and incubated overnight at 4° C. The purification and biotinylated HS bound complex where achieved using avidin-Sepharose and increasing concentration of NaCl washes. […]

human FXa (Homo sapiens) [3] = target: T3, human FXa (Homo sapiens); assay: In vitro anti-FXa activity of oligosaccharides (chromogenic, with antithrombin); type: biochemical; conditions: for anti-FXa activity (anticoagulant activity): 0-131 nM
T3 construct: purchased Enzyme Research Laboratories (FXa); Cutter Biologics (antithrombin)
Protocol: as §1

liver IR injury in rats = conditions: cited from earlier work
human FXa (Homo sapiens) [4] = system: T3, human FXa (Homo sapiens); conditions: as previously demonstrated [15]; cited from earlier work

T3 sequence (P01008 33-464): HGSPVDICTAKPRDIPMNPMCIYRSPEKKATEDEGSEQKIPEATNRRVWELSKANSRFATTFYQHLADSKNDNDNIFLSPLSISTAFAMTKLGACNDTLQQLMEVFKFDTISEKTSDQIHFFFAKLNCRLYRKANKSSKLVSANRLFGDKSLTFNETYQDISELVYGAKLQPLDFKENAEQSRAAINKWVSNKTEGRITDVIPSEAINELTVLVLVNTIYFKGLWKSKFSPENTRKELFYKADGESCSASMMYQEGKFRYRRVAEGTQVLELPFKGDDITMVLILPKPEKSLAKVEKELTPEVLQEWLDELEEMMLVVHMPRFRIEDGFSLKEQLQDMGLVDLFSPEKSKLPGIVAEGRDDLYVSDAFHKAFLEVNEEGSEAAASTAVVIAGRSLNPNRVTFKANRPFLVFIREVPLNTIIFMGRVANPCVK
T1 sequence (P01008 33-464): as above

Compound | hepatic necrotic area in ischemic lobe (H&E) [1] | plasma ALT [1] | neutrophil infiltration into ischemic liver (immunohistochemistry) [1] | plasma FXa activity (FXa (Homo sapiens)) | HMGB1 pulldown from liver lysate (HMGB1) | anti-FXa activity (anticoagulant activity) (human FXa (Homo sapiens) [3]) | also measured
GlcNS6S-GlcA-GlcNS6S3S-IdoA2S-GlcNS6S-IdoA2S-GlcNS6S-IdoA2S-GlcNS6S-IdoA2S-GlcNS6S-GlcA-pNP [12-mer-1] | decreased hepatic necrosis | significantly decreased plasma ALT | decreased neutrophil infiltration | significantly decreased FXa activity | successfully pull down HMGB1 | – | decrease of MPO activity compared to the IR group (MPO): 60%; renal clearance [2]: renal clearance impairment of 12-mer-1 was demonstrated; toxicity (rat model): no toxicity; IC50 (human FXa (Homo sapiens) [3]; with antithrombin, substrate S-2765): 63 nM
GlcNS6S-GlcA-GlcNS6S-IdoA2S-GlcNS6S-IdoA2S-GlcNS6S-IdoA2S-GlcNS6S-IdoA2S-GlcNS6S-GlcA-pNP [12-mer-3] | not 12-mer-3 decreased ALT and necrosis | not 12-mer-3 decreased ALT | did not | – | successfully pull down HMGB1 | did not display anti-FXa activity | MPO activity (MPO): 96.00 U/g protein
CC(=N)N1CC[C@H](Oc2ccc([C@H](Cc3ccc4ccc(C(=N)N)cc4c3)C(=O)O)cc2)C1 [DX9065a] | – | – | – | – | – | – | liver IR injury (liver IR injury in rats): no protection
GlcNS6S-GlcA-GlcNS6S-GlcA-GlcNS6S-GlcA-GlcNS6S-GlcA-GlcNS6S-GlcA-GlcNS6S-GlcA-pNP [12-mer-4] | – | – | – | – | – | did not display anti-FXa activity | –
GlcNS-GlcA-GlcNS-IdoA2S-GlcNS-IdoA2S-GlcNS-IdoA2S-GlcNS-IdoA2S-GlcNS-GlcA-pNP [12-mer-2] | – | – | – | – | – | did not display anti-FXa activity | –
GlcNS6S-GlcA-GlcNS6S3S-IdoA2S-GlcNS6S-GlcA-pNP [6-mer-AXa] | – | no statistical difference in the concentration of ALT | – | Anticoagulant levels are similar between both treatment groups | does not pull down HMGB1 | – | anticoagulant activity through inhibition of FXa (human FXa (Homo sapiens) [4]): has anticoagulant activity through inhibition of FXa

Source: patent US12569512B2, “Heparan sulfate (HS) oligosaccharides effect in liver ischemia reperfusion injury” (The University of North Carolina at Chapel Hill, priority 2019, dated 2026)
